From US20060247129A1, “Surfactant compounds and agrochemical compositions” (Imperial Chemical Industries PLC, priority 2003, published 2006)
Structures can show the parent of a compound that is named as a salt.

How the values were obtained:
Test in all cases: glasshouse herbicide spray test, % weed control, adjuvant with glyphosate potassium salt
Type in all cases: in vivo
Conditions in all cases: 19 days after treatment
Sida Spinosa = test system: Sida Spinosa
Protocol: (§1) The compound of Synthesis Example SE1 was tested as an adjuvant with glyphosate potassium salt, mixing the glyphosate and adjuvant in a tank mix using concentrations of glyphosate from 0.125 to 2 g.l-1 and of adjuvant from 0.003125 to 0.2% v/v. The tank mixes were sprayed as a herbicide on a variety of test species at an application rate of 200 l.ha^−1 to give application rates of glyphosate of from 25 to 400 g (active ingredient).ha^−1. The plants were grown in a warm glasshouse and assessed 19 days after treatment for % control—the mean of three replicates for visually assessed % weed control, relative to unsprayed plants of each species in the same test.
(§2) Example AE1 was repeated but using the compound made in Synthesis Example SE4 as the adjuvant.

Abutilon Theophrasti = test system: Abutilon Theophrasti
Protocol: as §1, §2

Solanum nigra = test system: Solanum nigra
Protocol: as §1, §2

Portulaca oleracea = test system: Portulaca oleracea
Protocol: as §1, §2

Sorghum halepense = test system: Sorghum halepense
Protocol: as §1, §2

Echinochloa crus-galli = test system: Echinochloa crus-galli
Protocol: as §1, §2

[1] = glyphosate 50 g ai/ha, adjuvant 0 % v/v
[2] = glyphosate 100 g ai/ha, adjuvant 0 % v/v
[3] = glyphosate 200 g ai/ha, adjuvant 0 % v/v
[4] = glyphosate 400 g ai/ha, adjuvant 0 % v/v
[5] = glyphosate 25 g ai/ha, adjuvant 0 % v/v
[6] = glyphosate 50 g ai/ha, adjuvant 0.003125 % v/v
[7] = glyphosate 50 g ai/ha, adjuvant 0.0125 % v/v
[8] = glyphosate 50 g ai/ha, adjuvant 0.05 % v/v
[9] = glyphosate 50 g ai/ha, adjuvant 0.2 % v/v
[10] = glyphosate 100 g ai/ha, adjuvant 0.003125 % v/v
[11] = glyphosate 100 g ai/ha, adjuvant 0.0125 % v/v
[12] = glyphosate 100 g ai/ha, adjuvant 0.05 % v/v
[13] = glyphosate 100 g ai/ha, adjuvant 0.2 % v/v
[14] = glyphosate 200 g ai/ha, adjuvant 0.003125 % v/v
[15] = glyphosate 200 g ai/ha, adjuvant 0.0125 % v/v
[16] = glyphosate 200 g ai/ha, adjuvant 0.05 % v/v
[17] = glyphosate 200 g ai/ha, adjuvant 0.2 % v/v
[18] = glyphosate 400 g ai/ha, adjuvant 0.003125 % v/v
[19] = glyphosate 400 g ai/ha, adjuvant 0.0125 % v/v
[20] = glyphosate 400 g ai/ha, adjuvant 0.05 % v/v
[21] = glyphosate 400 g ai/ha, adjuvant 0.2 % v/v
[22] = glyphosate 25 g ai/ha, adjuvant 0.003125 % v/v
[23] = glyphosate 25 g ai/ha, adjuvant 0.0125 % v/v
[24] = glyphosate 25 g ai/ha, adjuvant 0.05 % v/v
[25] = glyphosate 25 g ai/ha, adjuvant 0.2 % v/v

Compound: O=C(O)CNCP(=O)(O)O [Glyphosate, glyphosate potassium salt, reference compound]
- % control SIDSP (Sida Spinosa; [1]): 30%
- % control SIDSP (Sida Spinosa; [2]): 35%
- % control SIDSP (Sida Spinosa; [3]): 58%
- % control SIDSP (Sida Spinosa; [4]): 75%
- % control ABUTH (Abutilon Theophrasti; [3]): 53%
- % control ABUTH (Abutilon Theophrasti; [4]): 73%
- % control SOLNI (Solanum nigra; [1]): 37%
- % control SOLNI (Solanum nigra; [2]): 65%
- % control SOLNI (Solanum nigra; [3]): 77%
- % control SOLNI (Solanum nigra; [4]): 78%
- % control POROC (Portulaca oleracea; [1]): 3%
- % control POROC (Portulaca oleracea; [2]): 10%
- % control POROC (Portulaca oleracea; [3]): 22%
- % control POROC (Portulaca oleracea; [4]): 38%
- % control SORHA (Sorghum halepense; [5]): 8%
- % control SORHA (Sorghum halepense; [1]): 47%
- % control SORHA (Sorghum halepense; [2]): 79%
- % control SORHA (Sorghum halepense; [3]): 82%
- % control ECHCG (Echinochloa crus-galli; [5]): 21%
- % control ECHCG (Echinochloa crus-galli; [1]): 47%
- % control ECHCG (Echinochloa crus-galli; [2]): 67%
- % control ECHCG (Echinochloa crus-galli; [3]): 82%

Compound: Random 8-ethoxylate-2-propoxylate of N-methyl glucamine C8/C10 glycidyl ether [SE1]
- % control SIDSP (Sida Spinosa; [6]): 30%
- % control SIDSP (Sida Spinosa; [7]): 38%
- % control SIDSP (Sida Spinosa; [8]): 42%
- % control SIDSP (Sida Spinosa; [9]): 31%
- % control SIDSP (Sida Spinosa; [10]): 33%
- % control SIDSP (Sida Spinosa; [11]): 48%
- % control SIDSP (Sida Spinosa; [12]): 48%
- % control SIDSP (Sida Spinosa; [13]): 55%
- % control SIDSP (Sida Spinosa; [14]): 63%
- % control SIDSP (Sida Spinosa; [15]): 48%
- % control SIDSP (Sida Spinosa; [16]): 72%
- % control SIDSP (Sida Spinosa; [17]): 79%
- % control SIDSP (Sida Spinosa; [18]): 79%
- % control SIDSP (Sida Spinosa; [19]): 73%
- % control SIDSP (Sida Spinosa; [20]): 83%
- % control SIDSP (Sida Spinosa; [21]): 78%
- % control ABUTH (Abutilon Theophrasti; [6]): 33%
- % control ABUTH (Abutilon Theophrasti; [7]): 33%
- % control ABUTH (Abutilon Theophrasti; [8]): 38%
- % control ABUTH (Abutilon Theophrasti; [9]): 27%
- % control ABUTH (Abutilon Theophrasti; [10]): 53%
- % control ABUTH (Abutilon Theophrasti; [11]): 35%
- % control ABUTH (Abutilon Theophrasti; [12]): 43%
- % control ABUTH (Abutilon Theophrasti; [13]): 42%
- % control ABUTH (Abutilon Theophrasti; [14]): 62%
- % control ABUTH (Abutilon Theophrasti; [15]): 66%
- % control ABUTH (Abutilon Theophrasti; [16]): 66%
- % control ABUTH (Abutilon Theophrasti; [17]): 70%
- % control ABUTH (Abutilon Theophrasti; [18]): 81%
- % control ABUTH (Abutilon Theophrasti; [19]): 82%
- % control ABUTH (Abutilon Theophrasti; [20]): 79%
- % control ABUTH (Abutilon Theophrasti; [21]): 83%
- % control SOLNI (Solanum nigra; [6]): 37%
- % control SOLNI (Solanum nigra; [7]): 35%
- % control SOLNI (Solanum nigra; [8]): 48%
- % control SOLNI (Solanum nigra; [9]): 50%
- % control SOLNI (Solanum nigra; [10]): 62%
- % control SOLNI (Solanum nigra; [11]): 68%
- % control SOLNI (Solanum nigra; [12]): 68%
- % control SOLNI (Solanum nigra; [13]): 77%
- % control SOLNI (Solanum nigra; [14]): 80%
- % control SOLNI (Solanum nigra; [15]): 81%
- % control SOLNI (Solanum nigra; [16]): 81%
- % control SOLNI (Solanum nigra; [17]): 79%
- % control SOLNI (Solanum nigra; [18]): 80%
- % control SOLNI (Solanum nigra; [19]): 81%
- % control SOLNI (Solanum nigra; [20]): 79%
- % control SOLNI (Solanum nigra; [21]): 82%
- % control POROC (Portulaca oleracea; [6]): 7%
- % control POROC (Portulaca oleracea; [7]): 4%
- % control POROC (Portulaca oleracea; [8]): 12%
- % control POROC (Portulaca oleracea; [9]): 30%
- % control POROC (Portulaca oleracea; [10]): 8%
- % control POROC (Portulaca oleracea; [11]): 9%
- % control POROC (Portulaca oleracea; [12]): 18%
- % control POROC (Portulaca oleracea; [13]): 37%
- % control POROC (Portulaca oleracea; [14]): 23%
- % control POROC (Portulaca oleracea; [15]): 20%
- % control POROC (Portulaca oleracea; [16]): 45%
- % control POROC (Portulaca oleracea; [17]): 64%
- % control POROC (Portulaca oleracea; [18]): 42%
- % control POROC (Portulaca oleracea; [19]): 43%
- % control POROC (Portulaca oleracea; [20]): 60%
- % control POROC (Portulaca oleracea; [21]): 73%
- % control SORHA (Sorghum halepense; [22]): 17%
- % control SORHA (Sorghum halepense; [23]): 7%
- % control SORHA (Sorghum halepense; [24]): 8%
- % control SORHA (Sorghum halepense; [25]): 45%
- % control SORHA (Sorghum halepense; [6]): 40%
- % control SORHA (Sorghum halepense; [7]): 22%
- % control SORHA (Sorghum halepense; [8]): 20%
- % control SORHA (Sorghum halepense; [9]): 84%
- % control SORHA (Sorghum halepense; [10]): 90%
- % control SORHA (Sorghum halepense; [11]): 81%
- % control SORHA (Sorghum halepense; [12]): 72%
- % control SORHA (Sorghum halepense; [13]): 92%
- % control SORHA (Sorghum halepense; [14]): 93%
- % control SORHA (Sorghum halepense; [15]): 91%
- % control SORHA (Sorghum halepense; [16]): 91%
- % control SORHA (Sorghum halepense; [17]): 96%
- % control ECHCG (Echinochloa crus-galli; [22]): 15%
- % control ECHCG (Echinochloa crus-galli; [23]): 10%
- % control ECHCG (Echinochloa crus-galli; [24]): 22%
- % control ECHCG (Echinochloa crus-galli; [25]): 37%
- % control ECHCG (Echinochloa crus-galli; [6]): 48%
- % control ECHCG (Echinochloa crus-galli; [7]): 47%
- % control ECHCG (Echinochloa crus-galli; [8]): 58%
- % control ECHCG (Echinochloa crus-galli; [9]): 70%
- % control ECHCG (Echinochloa crus-galli; [10]): 85%
- % control ECHCG (Echinochloa crus-galli; [11]): 82%
- % control ECHCG (Echinochloa crus-galli; [12]): 84%
- % control ECHCG (Echinochloa crus-galli; [13]): 89%
- % control ECHCG (Echinochloa crus-galli; [14]): 92%
- % control ECHCG (Echinochloa crus-galli; [15]): 90%
- % control ECHCG (Echinochloa crus-galli; [16]): 93%
- % control ECHCG (Echinochloa crus-galli; [17]): 97%
